Measurements as given in PMC8412899 (ACS Omega, 2021).

How the values were obtained:
MCL-1 [1] = target: T1, MCL-1 (Homo sapiens, UniProt Q07820); experiment: FP; format: binding; settings: for inhibition at 50 µM: read-out: FP MCL-1 inhibition at 50 μM, @50 μM, highest tested dose; for Ki: FP MCL-1 Ki
NCI-H929 cells = experiment: MTT cell viability assay of NCI H929 cell line; format: cell-based; settings: compared to 13
MCL-1 [2] = target: T1, MCL-1; experiment: QA; format: binding; settings: QA MCL-1 Ki

T1 sequence (Q07820 whole entry): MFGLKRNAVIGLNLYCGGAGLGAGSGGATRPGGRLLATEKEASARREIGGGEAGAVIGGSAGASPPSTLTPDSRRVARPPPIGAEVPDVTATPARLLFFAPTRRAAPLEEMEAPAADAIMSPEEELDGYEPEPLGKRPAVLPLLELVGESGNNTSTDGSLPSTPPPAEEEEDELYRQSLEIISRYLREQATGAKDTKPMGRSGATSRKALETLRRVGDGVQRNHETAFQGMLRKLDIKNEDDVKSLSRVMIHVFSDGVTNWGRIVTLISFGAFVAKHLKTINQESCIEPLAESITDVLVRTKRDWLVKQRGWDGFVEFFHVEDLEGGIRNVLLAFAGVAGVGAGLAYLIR

Compound | Ki (MCL-1 [1]) [nM] | also measured
CCc1c(-c2cccc(Cl)c2C)c2c(N[C@H](Cc3ccccc3)C(=O)O)ncnc2n1C (single isomer, unassigned) [Compound 2a, N-[(5Ra)-5-(3-Chloro-2-methylphenyl)-6-ethyl-7-methyl-7H-pyrrolo[2,3-d]pyrimidin-4-yl]-D-phenylalanine] |  | inhibition at 50 µM (MCL-1 [1]): 65%
C=CCn1c(Br)c(-c2cccc(Cl)c2C)c2c(N[C@H](Cc3ccccc3)C(=O)O)ncnc21 (single isomer, unassigned) [Compound 4a, N-[6-Bromo-(5Sa)-5-(3-chloro-2-methylphenyl)-7-(prop-2-en-1-yl)-7H-pyrrolo[2,3-d]pyrimidin-4-yl]-D-phenylalanine] | 2500 | 
C=CCn1c(Br)c(-c2cccc(Cl)c2C)c2c(N[C@H](Cc3ccccc3)C(=O)O)ncnc21 (single isomer, unassigned) [Compound 4b, N-[6-Bromo-(5Ra)-5-(3-chloro-2-methylphenyl)-7-(prop-2-en-1-yl)-7H-pyrrolo[2,3-d]pyrimidin-4-yl]-D-phenylalanine] |  | inhibition at 50 µM (MCL-1 [1]): 66%
CCc1c(-c2cccc(Cl)c2C)c2c(N[C@H](Cc3ccccc3)C(=O)O)ncnc2n1CC(F)(F)F (single isomer, unassigned) [Compound 5a, N-[(5Ra)-5-(3-Chloro-2-methylphenyl)-6-ethyl-7-(2,2,2-trifluoroethyl)-7H-pyrrolo[2,3-d]pyrimidin-4-yl]-D-phenylalanine] |  | inhibition at 50 µM (MCL-1 [1]): 63%
CCc1c(-c2cccc(Cl)c2C)c2c(N[C@H](Cc3ccccc3)C(=O)O)ncnc2n1CCC1CCCC1 (single isomer, unassigned) [Compound 9a, N-[(5Ra)-5-(3-Chloro-2-methylphenyl)-7-(2-cyclopentylethyl)-6-ethyl-7H-pyrrolo[2,3-d]pyrimidin-4-yl]-D-phenylalanine] | 3500 | 
Cc1c(Cl)cccc1-c1c2n(c3ncnc(N[C@H](Cc4ccccc4)C(=O)O)c13)CCCC2 (single isomer, unassigned) [Compound 12a, N-[(5Ra)-5-(3-Chloro-2-methylphenyl)-6,7,8,9-tetrahydropyrimido[5,4-b]indolizin-4-yl]-D-phenylalanine] | 11000 | 
Cc1c(Cl)cccc1-c1c2n(c3ncnc(N[C@H](Cc4ccccc4)C(=O)O)c13)CCCC2 (single isomer, unassigned) [Compound 12b, N-[(5Sa)-5-(3-Chloro-2-methylphenyl)-6,7,8,9-tetrahydropyrimido[5,4-b]indolizin-4-yl]-D-phenylalanine] | 5900 | 
CCc1c(-c2cccc(Cl)c2C)c2c(N[C@H](Cc3ccccc3)C(=O)O)ncnc2n1C(C)C [Compound 6a, N-[(5Ra)-5-(3-Chloro-2-methylphenyl)-6-ethyl-7-(propan-2-yl)-7H-pyrrolo[2,3-d]pyrimidin-4-yl]-D-phenylalanine] |  | inhibition at 50 µM (MCL-1 [1]): 67%
CCc1c(-c2cccc(Cl)c2C)c2c(N[C@H](Cc3ccccc3)C(=O)O)ncnc2n1C(C)C [Compound 6b, N-[(5Sa)-5-(3-Chloro-2-methylphenyl)-6-ethyl-7-(propan-2-yl)-7H-pyrrolo[2,3-d]pyrimidin-4-yl]-D-phenylalanine] |  | FP MCL-1 inhibition at 50 μM (MCL-1 [1]; @50 μM, highest tested dose): 78%@50 μM
COc1ccccc1C[C@@H](Oc1ncnc2sc(-c3ccc(F)cc3)c(-c3ccc(OCCN4CCN(C)CC4)c(Cl)c3C)c12)C(=O)O [Compound 13, (2R)-2-{[(5Sa)-5-{3-Chloro-2-methyl-4-[2-(4-methylpiperazin-1-yl)ethoxy]phenyl}-6-(4-fluorophenyl)thieno[2,3-d]pyrimidin-4-yl]oxy}-3-(2-methoxyphenyl)propanoic Acid] | 14 | 
COc1ccccc1C[C@@H](Oc1cccc2oc(-c3ccc(F)cc3)c(-c3ccc(OCCN4CCN(C)CC4)c(Cl)c3C)c12)C(=O)O [Compound 14, (2R)-2-{[(3Sa)-3-{3-Chloro-2-methyl-4-[2-(4-methylpiperazin-1-yl)ethoxy]phenyl}-2-(4-fluorophenyl)-1-benzofuran-4-yl]oxy}-3-(2-methoxyphenyl)propanoic Acid] | 820 | loss of cellular activity (NCI-H929 cells): more than 10 fold
COc1ccccc1C[C@@H](Oc1cccc2cc(-c3ccc(F)cc3)n(-c3ccc(OCCN4CCN(C)CC4)c(Cl)c3C)c12)C(=O)O [Compound 15, (2R)-2-{[(1Ra)-1-{3-Chloro-2-methyl-4-[2-(4-methylpiperazin-1-yl)ethoxy]phenyl}-2-(4-fluorophenyl)-1H-indol-7-yl]oxy}-3-(2-methoxyphenyl)propanoic Acid] | 47 | loss of cellular activity (NCI-H929 cells): more than 10 fold
COc1ccccc1-c1nccc(COc2ccccc2C[C@@H](Nc2ncnc3sc(-c4ccc(F)cc4)c(-c4ccc(OCCN5CCN(C)CC5)c(Cl)c4C)c23)C(=O)O)n1 [Compound 16b, N-[(5Sa)-5-{3-Chloro-2-methyl-4-[2-(4-methylpiperazin-1-yl)ethoxy]phenyl}-6-(4-fluorophenyl)thieno[2,3-d]pyrimidin-4-yl]-2-{[2-(2-methoxyphenyl)pyrimidin-4-yl]methoxy}-D-phenylalanine] |  | Ki (MCL-1 [2]): 0.303 nM
COc1ccccc1-c1nccc(COc2ccccc2C[C@@H](Nc2ccnc3sc(-c4ccc(F)cc4)c(-c4ccc(OCCN5CCN(C)CC5)c(Cl)c4C)c23)C(=O)O)n1 [Compound 18, N-[3-{3-Chloro-2-methyl-4-[2-(4-methylpiperazin-1-yl)ethoxy]phenyl}-2-(4-fluorophenyl)thieno[2,3-b]pyridin-4-yl]-2-{[2-(2-methoxyphenyl)pyrimidin-4-yl]methoxy}-D-phenylalanine] |  | Ki (MCL-1 [2]): 0.1 nM
COc1ccccc1-c1nccc(COc2ccccc2C[C@@H](Oc2cccc3oc(-c4ccc(F)cc4)c(-c4ccc(OCCN5CCN(C)CC5)c(Cl)c4C)c23)C(=O)O)n1 [Compound 21, (2R)-2-{[(3Sa)-3-{3-Chloro-2-methyl-4-[2-(4-methylpiperazin-1-yl)ethoxy]phenyl}-2-(4-fluorophenyl)-1-benzofuran-4-yl]oxy}-3-(2-{[2-(2-methoxyphenyl)pyrimidin-4-yl]methoxy}phenyl)propanoic Acid] |  | Ki (MCL-1 [2]): 1.3 nM

More lines, main results first:

Ki (MCL-1 [1]) [nM] | Compound | also measured
18000 | C=CCn1c(CC)c(-c2cccc(Cl)c2C)c2c(N[C@H](Cc3ccccc3)C(=O)O)ncnc21 (single isomer, unassigned) [Compound 3a, N-[(5Ra)-5-(3-Chloro-2-methylphenyl)-6-ethyl-7-(prop-2-en-1-yl)-7H-pyrrolo[2,3-d]pyrimidin-4-yl]-D-phenylalanine] | fold less potent (FP affinity) (MCL-1 [1]; less active form compared to more active isomer 3b): 2 fold
9100 | C=CCn1c(CC)c(-c2cccc(Cl)c2C)c2c(N[C@H](Cc3ccccc3)C(=O)O)ncnc21 (single isomer, unassigned) [Compound 3b, N-[(5Sa)-5-(3-Chloro-2-methylphenyl)-6-ethyl-7-(prop-2-en-1-yl)-7H-pyrrolo[2,3-d]pyrimidin-4-yl]-D-phenylalanine] | 
8500 | CCc1c(-c2cccc(Cl)c2C)c2c(N[C@H](Cc3ccccc3)C(=O)O)ncnc2n1CC(F)(F)F (single isomer, unassigned) [Compound 5b, N-[(5Sa)-5-(3-Chloro-2-methylphenyl)-6-ethyl-7-(2,2,2-trifluoroethyl)-7H-pyrrolo[2,3-d]pyrimidin-4-yl]-D-phenylalanine] | 
5900 | CC#CCn1c(CC)c(-c2cccc(Cl)c2C)c2c(N[C@H](Cc3ccccc3)C(=O)O)ncnc21 (single isomer, unassigned) [Compound 7a, N-[7-(But-2-yn-1-yl)-(5Ra)-5-(3-chloro-2-methylphenyl)-6-ethyl-7H-pyrrolo[2,3-d]pyrimidin-4-yl]-D-phenylalanine] | 
330 | CC#CCn1c(CC)c(-c2cccc(Cl)c2C)c2c(N[C@H](Cc3ccccc3)C(=O)O)ncnc21 (single isomer, unassigned) [Compound 7b, N-[7-(But-2-yn-1-yl)-(5Sa)-5-(3-chloro-2-methylphenyl)-6-ethyl-7H-pyrrolo[2,3-d]pyrimidin-4-yl]-D-phenylalanine] | 
6500 | CCc1c(-c2cccc(Cl)c2C)c2c(N[C@H](Cc3ccccc3)C(=O)O)ncnc2n1Cc1ccccc1 (single isomer, unassigned) [Compound 8a, N-[7-Benzyl-(5Ra)-5-(3-chloro-2-methylphenyl)-6-ethyl-7H-pyrrolo[2,3-d]pyrimidin-4-yl]-D-phenylalanine] | 
530 | CCc1c(-c2cccc(Cl)c2C)c2c(N[C@H](Cc3ccccc3)C(=O)O)ncnc2n1Cc1ccccc1 (single isomer, unassigned) [Compound 8b, N-[7-Benzyl-(5Sa)-5-(3-chloro-2-methylphenyl)-6-ethyl-7H-pyrrolo[2,3-d]pyrimidin-4-yl]-D-phenylalanine] | 
790 | CCc1c(-c2cccc(Cl)c2C)c2c(N[C@H](Cc3ccccc3)C(=O)O)ncnc2n1CCC1CCCC1 (single isomer, unassigned) [Compound 9b, N-[(5Sa)-5-(3-Chloro-2-methylphenyl)-7-(2-cyclopentylethyl)-6-ethyl-7H-pyrrolo[2,3-d]pyrimidin-4-yl]-D-phenylalanine] | FP MCL-1 Ki (MCL-1 [1]): submicromolar
3500 | CCc1c(-c2cccc(Cl)c2C)c2c(N[C@H](Cc3ccccc3)C(=O)O)ncnc2n1Cc1cccc2ccccc12 (single isomer, unassigned) [Compound 10a, N-[(5Ra)-5-(3-Chloro-2-methylphenyl)-6-ethyl-7-(naphthalen-1-ylmethyl)-7H-pyrrolo[2,3-d]pyrimidin-4-yl]-D-Phenylalanine] | 
260 | CCc1c(-c2cccc(Cl)c2C)c2c(N[C@H](Cc3ccccc3)C(=O)O)ncnc2n1Cc1cccc2ccccc12 (single isomer, unassigned) [Compound 10b, N-[(5Sa)-5-(3-Chloro-2-methylphenyl)-6-ethyl-7-(naphthalen-1-ylmethyl)-7H-pyrrolo[2,3-d]pyrimidin-4-yl]-D-phenylalanine] | 
